Measurements reported in patent US4510144A, “Methods of imparting immunomodulating activity with dihydrothiazolo purine derivatives” (Newport Pharmaceuticals International, priority 1982, dated 1985).
Read-outs that look alike come from different tables or passages of the source.

Test system: murine spleen cells, Con A induced (T-cells)
Assay: Con A induced lymphocyte proliferation in mouse spleen cells in vitro
Type: cell-based, mouse (Balb/C)
Conditions: for activity at 0.01 µg/mL / activity at 0.1 µg/mL / activity at 1 µg/mL / activity at 2.5 µg/mL / activity at 5 µg/mL / activity at 25 µg/mL / activity at 50 µg/mL: Mus musculus
Text: (1) Mitogen-(Lipopolysaccharide, LPS or Con A) induced lymphocyte proliferation using murine spleen cells (in vitro)
1. […] LPS is a mitogen which acts preferentially on B-cells. […] Con A is considered a T-cell mitogen.
1. Balb/C male mice, 7-8 weeks old, are used up to 20-24 weeks of age.
2. The animals are sacrificed by cervical dislocation and the animals' left sides swabbed with 70% ethanol. An incision is made between the lower ribs and pelvis, laterally from front to back, and the skin retracted. Aseptic technique is to be observed from this point on.
3. The spleen is gently removed with sterile forceps. […] When all spleens have been collected and cleaned they are placed in a second petri dish containing 3 ml cold RPMI.
4. Spleen cell suspensions are prepared by gentle mincing of the tissue with a sterile blade and filtering through #100 stainless steel mesh.
6. An aliquot of the above suspension is prepared for cell counting as follows: 0.1 ml of suspension is diluted to 1.0 ml with 3% acetic acid and let stand at room temperature for at least five minutes. The sample is then diluted 1:100 with "Isoton II" (Curtis-Matheson Co.) and counted in a coulter counter.
MURINE SPLENOCYTE STIMULATION WITH CONCANAVALIN A (CON A), LIPOPOLYSACCHARIDE (LPS), AND ALLOGENEIC SPLENOCYTES (LMC).
There is set forth below the standard procedure which should be modified according to the solubility and other properties of the particular compound tested.
Add ~10 ml RPMI to 1.79 g HEPES and vortex until completely dissolved. […] Allow to warm temperature before use.
5. Con A (Calbiochem)--100 mg/ml NaCl injection solution (McGaw), filter, aliquot in 1 ml, and store at -70° C.
8. Tritiated thymidine (^3 H-TdR, Schwartz-Mann, 6 Ci/mM). Remove a slightly larger volume of ^3 H-TdR than needed from vial with a 1 cc syringe and place volume in the cap of a small sterile plastic tube. […] Vortex thoroughly before adding to plates.
1. Animals are sacrificed by cervical dislocation killing one from each group and processing the cells individually before killing the next animal. Swab each animal with 70% ethanol before surgery. […] Use 8 vertical strokes (or enough to break up all tissue) with Teflon-tipped homogenizer. Filter each sample through a 100 mesh screen into a 50 ml tube. […] After all samples have been spun, vortex each briefly and let sit for 1 hour. Vortex each sample ~5 seconds, waiting ~10 seconds between each sample. Let sit 5 minutes, then pipet cell suspension into 5 ml (12×75 mm) tube being careful not to remove any sediment. Remove 50 ul cell suspension using micropipetter, carefully wipe pipet tip with kimwipe and pipet into 20 ml Isoton in Coulter counter vial, rinsing pipet several times in the Isoton. Add 6 drops of CyMet and swirl vial to mix. Use the following Coulter counter settings: Amplification-1, Threshold-10, and Aperture Current-1. Clean counter with Isoterge the morning of experiment and count background before standardizing with CH 0.60 Hematology Controls. After cell counts are obtained, dilute to 6×10^6 cells/ml with supplemented RPMI and aliquot into 3 tubes for the 3 assays.
1. Pipet 100 μl control media (supplemented RPMI) or appropriate dilution of mitogen (starting with lowest concentration) into microtiter plate using Titertek multi-channel pipetter. Place plates in 37° C. CO2 incubator with CO2 set at 0.5 after each plate has been pipetted. Pipet 100 μl responder cells into wells starting with most dilute mitogen concentration. Place plates in incubator as they are filled and after all plates are in incubator, let sit for 10-20 minutes. Wrap plates with plastic wrap, recover with top, replace in incubator, and reset CO2 to ~0.05. Save ~50 ml supplemented RPMI at 4° C. for thymidine dilution. After ~44 hours warm the RPMI to 37° C. in incubator. Dilute tritiated Thymidine 1:100 in warmed RPMI. Use Titertek to add 50 μl Thymidine to each well. Treat plates as above and incubate overnight (~18 hours).

Oc1ncnc2c1nc1n2CCS1 [NPT 16416, 3-hydroxy-7,8-dihydrothiazolo-[3,2e]-purine]
activity at 0.01 µg/mL (T-cell, drug 10 ng/ml, Con A 1000 ng/ml, drug/control, read-out: Hi Mitogen D/C Con A): 104%
activity at 0.1 µg/mL (T-cell, drug 100 ng/ml, Con A 1000 ng/ml, drug/control, read-out: Hi Mitogen D/C Con A): 102%
activity at 1 µg/mL (T-cell, drug 1,000 ng/ml, Con A 1000 ng/ml, drug/control, read-out: Hi Mitogen D/C Con A): 103%
activity at 2.5 µg/mL (T-cell, drug 2,500 ng/ml, Con A 1000 ng/ml, drug/control, read-out: Hi Mitogen D/C Con A): 91%
activity at 5 µg/mL (T-cell, drug 5,000 ng/ml, Con A 1000 ng/ml, drug/control, read-out: Hi Mitogen D/C Con A): 101%
activity at 25 µg/mL (T-cell, drug 25,000 ng/ml, Con A 1000 ng/ml, drug/control, read-out: Hi Mitogen D/C Con A): 100%
activity at 50 µg/mL (T-cell, drug 50,000 ng/ml, Con A 1000 ng/ml, drug/control, read-out: Hi Mitogen D/C Con A): 99%
activity at 0.01 µg/mL (read-out: Lo Mitogen D/C Con A): 85%
activity at 0.1 µg/mL (drug 100 ng/ml, Con A 375 ng/ml, drug/control, read-out: Lo Mitogen D/C Con A): 105%
activity at 1 µg/mL (drug 1,000 ng/ml, Con A 375 ng/ml, drug/control, read-out: Lo Mitogen D/C Con A): 93%
activity at 1 µg/mL (drug 1,000 ng/ml, Con A .375 μg/ml, read-out: Con A D/C (maximum values)): 118%
activity at 2.5 µg/mL (drug 2,500 ng/ml, Con A 375 ng/ml, drug/control, read-out: Lo Mitogen D/C Con A): 98%
activity at 5 µg/mL (drug 5,000 ng/ml, Con A 375 ng/ml, drug/control, read-out: Lo Mitogen D/C Con A): 110%
activity at 25 µg/mL (drug 25,000 ng/ml, Con A 375 ng/ml, drug/control, read-out: Lo Mitogen D/C Con A): 113%
activity at 25 µg/mL (drug 25,000 ng/ml, Con A .375 μg/ml, read-out: Con A D/C (maximum values)): 118%
activity at 50 µg/mL (drug 50,000 ng/ml, Con A 375 ng/ml, drug/control, read-out: Lo Mitogen D/C Con A): 103%
CPM Incorp. + Con A (drug 10 ng/ml, Con A 375 ng/ml): 17.3 CPM × 10^3
CPM Incorp. + Con A (drug 10 ng/ml, Con A 1000 ng/ml): 61.8 CPM × 10^3
CPM Incorp. + Con A (drug 100 ng/ml, Con A 375 ng/ml): 20.6 CPM × 10^3
CPM Incorp. + Con A (drug 100 ng/ml, Con A 1000 ng/ml): 60.8 CPM × 10^3
CPM Incorp. + Con A (drug 1,000 ng/ml, Con A 375 ng/ml): 18.0 CPM × 10^3
CPM Incorp. + Con A (drug 1,000 ng/ml, Con A 1000 ng/ml): 60.8 CPM × 10^3
CPM Incorp. + Con A (drug 2,500 ng/ml, Con A 375 ng/ml): 19.1 CPM × 10^3
CPM Incorp. + Con A (drug 2,500 ng/ml, Con A 1000 ng/ml): 54.0 CPM × 10^3
CPM Incorp. + Con A (drug 5,000 ng/ml, Con A 375 ng/ml): 21.5 CPM × 10^3
CPM Incorp. + Con A (drug 5,000 ng/ml, Con A 1000 ng/ml): 59.7 CPM × 10^3
CPM Incorp. + Con A (drug 25,000 ng/ml, Con A 375 ng/ml): 22.1 CPM × 10^3
CPM Incorp. + Con A (drug 25,000 ng/ml, Con A 1000 ng/ml): 59.0 CPM × 10^3
CPM Incorp. + Con A (drug 50,000 ng/ml, Con A 375 ng/ml): 20.2 CPM × 10^3
CPM Incorp. + Con A (drug 50,000 ng/ml, Con A 1000 ng/ml): 58.6 CPM × 10^3
effect on Con A induced proliferation (T-cell response), in words (in vitro): little or no effect
